According to PubChem BioAssay AID220 (DTP/NCI, 2004):
“And” between values parts separate entries of the source, which are not always exact repeats. Equal entries are not always repeated. Results filed as inconclusive are left out.

System: CD8F1 mice, subcutaneous mammary adenocarcinoma, T/C%
Experiment: NCI In Vivo Anticancer Drug Screen. Data for tumor model Mammary Adenocarcinoma CD8F1 (subcutaneous) in CD8F1
Settings: higher = larger tumour
Procedure, shortened: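 Antitumor activity is assessed in transplantable-tumor mice by comparing the treated group with a vehicle-treated control group. Survival or tumor size serves as the measure, reported as T divided by C.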

[1] = endpoint: median tumor weight (est.), dose: 50.0 mg/kg/injection, schedule: Q07DX005 (ip), vehicle: saline with Tween-80
[2] = endpoint: median tumor weight (est.), dose: 200.0 mg/kg/injection, schedule: Q07DX005 (ip), vehicle: saline with Tween-80
[3] = endpoint: median tumor weight (est.), dose: 400.0 mg/kg/injection, schedule: Q07DX005 (ip), vehicle: saline with Tween-80
[4] = endpoint: median tumor weight change, dose: 62.5 mg/kg/injection, schedule: Q01DX001 (ip), vehicle: saline with Tween-80
[5] = endpoint: median tumor weight change, dose: 125.0 mg/kg/injection, schedule: Q01DX001 (ip), vehicle: saline with Tween-80
[6] = endpoint: median tumor weight (est.), dose: 12.5 mg/kg/injection, schedule: Q07DX005 (ip), vehicle: saline with Tween-80
[7] = endpoint: median tumor weight (est.), dose: 25.0 mg/kg/injection, schedule: Q07DX005 (ip), vehicle: saline with Tween-80
[8] = endpoint: median tumor weight (est.), dose: 100.0 mg/kg/injection, schedule: Q07DX005 (ip), vehicle: saline with Tween-80
[9] = endpoint: median tumor weight change, dose: 62.5 mg/kg/injection, schedule: Q01DX001 (ip), vehicle: Klucel (hydroxypropylcellulose) (HPC)
[10] = endpoint: median tumor weight change, dose: 125.0 mg/kg/injection, schedule: Q01DX001 (ip), vehicle: Klucel (hydroxypropylcellulose) (HPC)
[11] = endpoint: median tumor weight change, dose: 250.0 mg/kg/injection, schedule: Q01DX001 (ip), vehicle: Klucel (hydroxypropylcellulose) (HPC)
[12] = endpoint: median tumor weight change, dose: 500.0 mg/kg/injection, schedule: Q01DX001 (ip), vehicle: Klucel (hydroxypropylcellulose) (HPC)

## OC1OC2COC(c3ccccc3)OC2C(O)C1O (centres undefined)
endpoint: median tumor weight change, dose: 50.0 mg/kg/injection, schedule: Q01DX001 (ip), vehicle: water
  T/C: 105 % of control
endpoint: median tumor weight change, dose: 100.0 mg/kg/injection, schedule: Q01DX001 (ip), vehicle: water
  T/C: 80 % of control
endpoint: median tumor weight change, dose: 200.0 mg/kg/injection, schedule: Q01DX001 (ip), vehicle: water
  T/C: 101 % of control
endpoint: median tumor weight change, dose: 400.0 mg/kg/injection, schedule: Q01DX001 (ip), vehicle: water
  T/C: 59 % of control
endpoint: median tumor weight change, dose: 800.0 mg/kg/injection, schedule: Q01DX001 (ip), vehicle: water
  T/C: 62 % of control
endpoint: median tumor weight change, dose: 1600.0 mg/kg/injection, schedule: Q01DX001 (ip), vehicle: water
  T/C: 90 % of control

## CC[n+]1ccc(Nc2ccc(NC(=O)c3ccc(C(=O)Nc4ccc(Nc5cc[n+](CC)c(N)n5)cc4)cc3)cc2)nc1N
endpoint: median tumor weight (est.), dose: 6.25 mg/kg/injection, schedule: Q07DX005 (ip), vehicle: suspension in saline
  T/C: 257 % of control
endpoint: median tumor weight (est.), dose: 25.0 mg/kg/injection, schedule: Q07DX005 (ip), vehicle: suspension in saline
  T/C: 77 % of control
endpoint: median tumor weight (est.), dose: 50.0 mg/kg/injection, schedule: Q07DX005 (ip), vehicle: suspension in saline
  T/C: 45 % of control
endpoint: median tumor weight (est.), dose: 100.0 mg/kg/injection, schedule: Q07DX005 (ip), vehicle: suspension in saline
  T/C: 41 % of control
endpoint: median tumor weight (est.), dose: 200.0 mg/kg/injection, schedule: Q07DX005 (ip), vehicle: suspension in saline
  T/C: 20 % of control

## O=C(N/N=C\c1cc(Br)cc(Br)c1O)N/N=C/c1cc(Br)cc(Br)c1O
[1]
  T/C: 60 % of control
[2]
  T/C: 100 % of control
[3]
  T/C: 391 % of control

## COc1ccc2c(c1)CCn1c(C)c(COC(=O)NC(C)C)c(COC(=O)NC(C)C)c1-2
endpoint: median tumor weight change, dose: 15.62 mg/kg/injection, schedule: Q01DX001 (ip), vehicle: distilled water + Tween-80
  T/C: 107 % of control
endpoint: median tumor weight change, dose: 31.0 mg/kg/injection, schedule: Q01DX001 (ip), vehicle: distilled water + Tween-80
  T/C: 106 % of control
endpoint: median tumor weight change, dose: 31.25 mg/kg/injection, schedule: Q01DX001 (ip), vehicle: distilled water + Tween-80
  T/C: 109 % of control and 114 % of control
endpoint: median tumor weight change, dose: 62.0 mg/kg/injection, schedule: Q01DX001 (ip), vehicle: distilled water + Tween-80
  T/C: 58 % of control
endpoint: median tumor weight change, dose: 250.0 mg/kg/injection, schedule: Q01DX001 (ip), vehicle: distilled water + Tween-80
  T/C: 26 % of control

## O=C(Oc1ccccc1)c1cc(O)c(O)c(O)c1
endpoint: median tumor weight change, dose: 150.0 mg/kg/injection, schedule: Q01DX001 (ip), vehicle: suspension in saline
  T/C: 98 % of control
endpoint: median tumor weight change, dose: 300.0 mg/kg/injection, schedule: Q01DX001 (ip), vehicle: suspension in saline
  T/C: 111 % of control

## O=C(C/C(=N\C(=S)Nc1cc(C(F)(F)F)ccc1Cl)NO)N1CCCC1
[4]
  T/C: 76 % of control
[5]
  T/C: 83 % of control and 90 % of control

## CCOC(=O)c1ccc(NC(=O)Nc2nncs2)cc1
endpoint: median tumor weight (est.), dose: 12.5 mg/kg/injection, schedule: Q07DX005 (ip), vehicle: distilled water + Tween-80
  T/C: 239 % of control
endpoint: median tumor weight (est.), dose: 25.0 mg/kg/injection, schedule: Q07DX005 (ip), vehicle: distilled water + Tween-80
  T/C: 259 % of control
endpoint: median tumor weight (est.), dose: 50.0 mg/kg/injection, schedule: Q07DX005 (ip), vehicle: distilled water + Tween-80
  T/C: 69 % of control
endpoint: median tumor weight (est.), dose: 400.0 mg/kg/injection, schedule: Q07DX005 (ip), vehicle: distilled water + Tween-80
  T/C: 156 % of control

## CC(C)=CCNc1ncnc2c1ncn2C1OC(CO)C(O)C1O (centres undefined)
[6]
  T/C: 78 % of control
[7]
  T/C: 84 % of control
[1]
  T/C: 113 % of control
[8]
  T/C: 85 % of control
[2]
  T/C: 82 % of control

## O=c1c(O)c(-c2cc(O)c(O)c(O)c2)oc2cc(O)cc(O)c12
endpoint: median tumor weight (est.), dose: 12.5 mg/kg/injection, schedule: Q07DX005 (ip), vehicle: other
  T/C: 85 % of control
endpoint: median tumor weight (est.), dose: 25.0 mg/kg/injection, schedule: Q07DX005 (ip), vehicle: other
  T/C: 85 % of control
endpoint: median tumor weight (est.), dose: 50.0 mg/kg/injection, schedule: Q07DX005 (ip), vehicle: other
  T/C: 122 % of control
endpoint: median tumor weight (est.), dose: 100.0 mg/kg/injection, schedule: Q07DX005 (ip), vehicle: other
  T/C: 70 % of control
endpoint: median tumor weight (est.), dose: 200.0 mg/kg/injection, schedule: Q07DX005 (ip), vehicle: other
  T/C: 89 % of control
endpoint: median tumor weight (est.), dose: 400.0 mg/kg/injection, schedule: Q07DX005 (ip), vehicle: other
  T/C: 70 % of control
[5]
  T/C: 61 % of control
endpoint: median tumor weight change, dose: 250.0 mg/kg/injection, schedule: Q01DX001 (ip), vehicle: saline with Tween-80
  T/C: 46 % of control
endpoint: median tumor weight change, dose: 500.0 mg/kg/injection, schedule: Q01DX001 (ip), vehicle: saline with Tween-80
  T/C: 40 % of control

## Nc1ncn(C2CC(O)C(CO)O2)c(=O)n1 (centres undefined)
endpoint: median tumor weight (est.), dose: 0.37 mg/kg/injection, schedule: Q07DX005 (ip), vehicle: saline
  T/C: 37 % of control
endpoint: median tumor weight (est.), dose: 0.75 mg/kg/injection, schedule: Q07DX005 (ip), vehicle: saline
  T/C: 25 % of control
endpoint: median tumor weight (est.), dose: 1.5 mg/kg/injection, schedule: Q07DX005 (ip), vehicle: saline
  T/C: 9 % of control
endpoint: median tumor weight (est.), dose: 3.0 mg/kg/injection, schedule: Q07DX005 (ip), vehicle: saline
  T/C: 10 % of control

## CC(=O)OCC1(C)NC(=O)c2ccccc2O1 (centres undefined)
[6]
  T/C: 18 % of control
[7]
  T/C: 40 % of control
[1]
  T/C: 18 % of control
[8]
  T/C: 37 % of control
[2]
  T/C: 34 % of control
[3]
  T/C: 24 % of control

## Clc1ccc(C(c2ccc(Cl)cc2)C(Cl)(Cl)Cl)cc1
endpoint: median tumor weight change, dose: 31.25 mg/kg/injection, schedule: Q01DX001 (ip), vehicle: Klucel (hydroxypropylcellulose) (HPC)
  T/C: 106 % of control
[9]
  T/C: 84 % of control
[10]
  T/C: 123 % of control
[11]
  T/C: 80 % of control
[12]
  T/C: 59 % of control

## C=C1C(C)C2C(Cc3ccccc3)NC(=O)C23C(OC(C)=O)C=CC(C)(O)C(=O)C(C)C/C=C/C3C1O (centres undefined)
endpoint: median tumor weight (est.), dose: 0.62 mg/kg/injection, schedule: Q07DX005 (ip), vehicle: saline
  T/C: 64 % of control
endpoint: median tumor weight (est.), dose: 1.25 mg/kg/injection, schedule: Q07DX005 (ip), vehicle: saline
  T/C: 61 % of control
endpoint: median tumor weight (est.), dose: 2.5 mg/kg/injection, schedule: Q07DX005 (ip), vehicle: saline
  T/C: 94 % of control
endpoint: median tumor weight (est.), dose: 5.0 mg/kg/injection, schedule: Q07DX005 (ip), vehicle: saline
  T/C: 59 % of control
endpoint: median tumor weight (est.), dose: 10.0 mg/kg/injection, schedule: Q07DX005 (ip), vehicle: saline
  T/C: 46 % of control

## CC1=C(/C=C/C(C)=C/C=C/C(C)=C/C=O)C(C)(C)CCC1
[4]
  T/C: 104 % of control
[5]
  T/C: 74 % of control

## CC[C@](C)(O)C(=O)O[C@H]1C(=O)O[C@@H]2C[C@H]3C(C)=CC(=O)[C@@H](O)[C@]3(C)[C@H]3[C@@]4(O)OC[C@]32[C@@H]1[C@@H](C)[C@H]4O
endpoint: median tumor weight (est.), dose: 0.06 mg/kg/injection, schedule: Q07DX005 (ip), vehicle: Klucel (hydroxypropylcellulose) (HPC)
  T/C: 116 % of control
endpoint: median tumor weight (est.), dose: 0.12 mg/kg/injection, schedule: Q07DX005 (ip), vehicle: Klucel (hydroxypropylcellulose) (HPC)
  T/C: 108 % of control
endpoint: median tumor weight (est.), dose: 0.5 mg/kg/injection, schedule: Q07DX005 (ip), vehicle: Klucel (hydroxypropylcellulose) (HPC)
  T/C: 73 % of control
endpoint: median tumor weight change, dose: 1.0 mg/kg/injection, schedule: Q01DX001 (ip), vehicle: Klucel (hydroxypropylcellulose) (HPC)
  T/C: 79 % of control

## COC1C(C)OC(OC2CC(C)(O)Cc3cc4c(c(O)c32)C(=O)c2c(O)cc3c(c2C4=O)OC2OC3(C)C(O)C(N(C)C)C2O)C(OC)C1(C)OC (centres undefined)
endpoint: median tumor weight (est.), dose: 2.5 mg/kg/injection, schedule: Q07DX005 (ip), vehicle: other
  T/C: 161 % of control
endpoint: median tumor weight (est.), dose: 5.0 mg/kg/injection, schedule: Q07DX005 (ip), vehicle: other
  T/C: 94 % of control
endpoint: median tumor weight (est.), dose: 10.0 mg/kg/injection, schedule: Q07DX005 (ip), vehicle: other
  T/C: 57 % of control

## O=Cc1ccc(C(Cl)(Cl)Cl)cc1
[6]
  T/C: 94 % of control
[7]
  T/C: 55 % of control
[1]
  T/C: 97 % of control
[8]
  T/C: 68 % of control
[2]
  T/C: 81 % of control

## C[n+]1c(-c2cccc3ccccc23)c2cc(N)ccc2c2ccccc21
endpoint: median tumor weight (est.), dose: 3.12 mg/kg/injection, schedule: Q07DX005 (ip), vehicle: saline
  T/C: 71 % of control
endpoint: median tumor weight (est.), dose: 6.25 mg/kg/injection, schedule: Q07DX005 (ip), vehicle: saline
  T/C: 99 % of control
endpoint: median tumor weight (est.), dose: 12.5 mg/kg/injection, schedule: Q07DX005 (ip), vehicle: saline
  T/C: 49 % of control

## C[Si](C)(C)OSc1ccccc1[N+](=O)[O-]
[10]
  T/C: 158 % of control
[11]
  T/C: 120 % of control
[12]
  T/C: 93 % of control
endpoint: median tumor weight change, dose: 1000.0 mg/kg/injection, schedule: Q01DX001 (ip), vehicle: Klucel (hydroxypropylcellulose) (HPC)
  T/C: 120 % of control
endpoint: median tumor weight change, dose: 2000.0 mg/kg/injection, schedule: Q01DX001 (ip), vehicle: Klucel (hydroxypropylcellulose) (HPC)
  T/C: 97 % of control

## COc1ccc2c(c1)C(O)(CN)CCCCC(OC)CCCC2 (centres undefined)
[9]
  T/C: 121 % of control
